Test results taken from patent US11186572B2, “Bacterial glutaminyl cyclases and inhibitors thereof for use in the treatment of periodontitis” (Fraunhofer-Gesellschaft zur Forderung der Angewandten …, priority 2016, dated 2021).
pKi: −log10 of the molar value. Where two headings read alike, the source gives them in different places.

Target: T1, PgQC (Porphyromonas gingivalis, UniProt Q7MT37)
T1 construct: Ki; RA (average residual QC activity of PgQC); other: c = 1 μM; other: c = 1.5 μM; other: c = 10 μM; other: c = 100 μM; other: c = 12 μM; RA; fused on or other part: N-terminal His tag from pET28a(+), cleaved off by thrombin before the enzymatic characterisation
Assay: biochemical
Set-up: species or system P. gingivalis
Conditions: for pKi: inhibition of PgQC, H-Gln-AMC, 50 mM Tris-HCl, 50 mM NaCl pH 8.0, 30° C.
Method: The assay consists of varying concentration of the fluorogenic substrate and 0.5 U pyroglutaminyl aminopeptidase in 50 mM Tris-HCl, 50 mM NaCl at pH 8.0. After 10 minute incubation time at 30° C. reaction was initiated by addition of bacQC to a final volume of 125 μl reaction mixture. […] All determinations were carried out in 96 well microtiter plates (Fisher Scientific) at 30° C. using the FluoStar Optima (BMG Labtech).
For inhibitor testing, the sample composition was the same as described above, except for the addition of the putative inhibitory compound. […] (∘) represents reaction without inhibitor. Determinations were carried out in 50 mM Tris-HCl, 50 mM NaCl pH 8.0 and 1% (v/v) DMSO at 30° C.
RA refers to the average residual QC activity of PgQC measured in the presence of a concentration c of the respective compound. Ki refers to the average Ki values measured as described above, and Std(Ki) refers to the standard deviation of Ki.

[1] = read-out: RA (average residual QC activity of PgQC)

With `COC(=O)/C=C/CN1CCc2[nH]cnc2C1` [MWT-S-00138, Methyl (E)-4-(3,4,6,7-tetrahydroimidazo[4,5-c]pyridin-5-yl)but-2-enoate] the pKi (Ki (average)) was 5.52 and the remaining activity at 20 µM [1] was 21%.
`c1ccc(CN2CCc3[nH]cnc3C2)cc1` [MWT-S-00139, 5-Benzyl-3,4,6,7-tetrahydroimidazo[4,5-c]pyridine] showed a pKi (read-out: Ki (average)) of 6.04 and a remaining activity at 8 µM [1] of 18%.
`c1ccc(CCN2CCc3[nH]cnc3C2)cc1` [MWT-S-00145, 5-(2-Phenylethyl)-3,4,6,7-tetrahydroimidazo[4,5-c]pyridine] showed a pKi (read-out: Ki (average)) of 5.19 and a remaining activity at 40 µM [1] of 21%.
`O=C(/C=C/c1ccccc1)N1CCc2[nH]cnc2C1` [MWT-S-00146, (E)-3-Phenyl-1-(3,4,6,7-tetrahydroimidazo[4,5-c]pyridin-5-yl)prop-2-en-1-one] showed a pKi (read-out: Ki (average)) of 5.80 and a remaining activity at 15 µM [1] of 18%.
Molecule `O=C(CCc1ccccc1)N1CCc2[nH]cnc2C1` [MWT-S-00147, 3-Phenyl-1-(3,4,6,7-tetrahydroimidazo[4,5-c]pyridin-5-yl)propan-1-one] has a pKi (read-out: Ki (average)) of 5.76 and a remaining activity at 12 µM [1] of 22%.
`O=C(Cc1ccccc1)N1CCc2[nH]cnc2C1` [MWT-S-00148, 2-Phenyl-1-(3,4,6,7-tetrahydroimidazo[4,5-c]pyridin-5-yl)ethanone] gave a pKi (read-out: Ki (average)) of 5.77 and a remaining activity at 8 µM [1] of 29%.
`O=C(c1ccccc1)N1CCc2[nH]cnc2C1` [MWT-S-00149, Phenyl(3,4,6,7-tetrahydroimidazo[4,5-c]pyridin-5-yl)methanone] gave a pKi (read-out: Ki (average)) of 6.36 and a remaining activity at 4 µM [1] of 20%.
Work on `O=C(c1ccc(F)cc1)N1CCc2[nH]cnc2C1` [MWT-S-00156, (4-Fluorophenyl)-(3,4,6,7-tetrahydroimidazo[4,5-c]pyridin-5-yl)methanone] yielded a pKi (read-out: Ki (average)) of 6.06 and a remaining activity at 5 µM [1] of 24%.
Work on `COc1ccc(C(=O)N2CCc3[nH]cnc3C2)cc1` [MWT-S-00157, (4-Methoxyphenyl)-(3,4,6,7-tetrahydroimidazo[4,5-c]pyridin-5-yl)methanone] yielded a pKi (read-out: Ki (average)) of 6.08 and a remaining activity at 5 µM [1] of 24%.
Work on `COc1cccc(C(=O)N2CCc3[nH]cnc3C2)c1` [MWT-S-00158, (3-Methoxyphenyl)-(3,4,6,7-tetrahydroimidazo[4,5-c]pyridin-5-yl)methanone] yielded a pKi (read-out: Ki (average)) of 6.47 and a remaining activity at 2 µM [1] of 21%.
With `O=C(c1ccc(Cl)c(Cl)c1)N1CCc2[nH]cnc2C1` [MWT-S-00159, (3,4-Dichlorophenyl)-(3,4,6,7-tetrahydroimidazo[4,5-c]pyridin-5-yl)methanone] the pKi (read-out: Ki (average)) was 6.59 and the remaining activity at 2 µM [1] was 18%.
Molecule `O=C(c1ccc(Cl)cc1)N1CCc2[nH]cnc2C1` [MWT-S-00160, (4-Chlorophenyl)-(3,4,6,7-tetrahydroimidazo[4,5-c]pyridin-5-yl)methanone] has a pKi (read-out: Ki (average)) of 6.17 and a remaining activity at 5 µM [1] of 20%.
In the case of `c1ccc(CN2CCc3[nH]cnc3C23COC3)cc1` [MWT-S-00260, 5-Benzylspiro[6,7-dihydro-3H-imidazo[4,5-c]pyridine-4,3′-oxetane]], the pKi (read-out: Ki (average)) was 5.75 and the remaining activity at 10 µM [1] was 22%.
In the case of `Fc1cc(CN2CCc3[nH]cnc3C2c2ccccc2)cc(F)c1F` (stereo not shown) [MWT-S-00261, 4-Phenyl-5-[(3,4,5-trifluorophenyl)methyl]-3,4,6,7-tetrahydroimidazo[4,5-c]pyridine], the remaining activity at 20 µM [1] was 93%.
Molecule `c1ccc(C2NCCc3[nH]cnc32)cc1` (stereo not shown) [MWT-S-00264] has a remaining activity at 100 µM [1] of 92%.
Work on `CC1c2nc[nH]c2CCN1Cc1ccccc1` (stereo not shown) [MWT-S-00265, 5-Benzyl-4-methyl-3,4,6,7-tetrahydroimidazo[4,5-c]pyridine] yielded a pKi (read-out: Ki (average)) of 5.51 and a remaining activity at 20 µM [1] of 21%.
For `Fc1cc(CN2CCc3[nH]cnc3C23COC3)cc(F)c1F` [MWT-S-00266, 5-[(3,4,5-Trifluorophenyl)methyl]spiro[6,7-dihydro-3H-imidazo[4,5-c]pyridine-4,3′-oxetane]], the pKi (Ki (average)) was 6.25 and the remaining activity at 4 µM [1] was 19%.
Molecule `CC1c2nc[nH]c2CCN1Cc1cc(F)c(F)c(F)c1` (stereo not shown) [MWT-S-00267, 4-Methyl-5-[(3,4,5-trifluorophenyl)methyl]-3,4,6,7-tetrahydro-imidazo[4,5-c]pyridine] has a pKi (Ki (average)) of 6.28 and a remaining activity at 4 µM [1] of 20%.
For `c1ccc(CN2CCc3[nH]cnc3C2c2ccccc2)cc1` (stereo not shown) [MWT-S-00268, 5-Benzyl-4-phenyl-3,4,6,7-tetrahydroimidazo[4,5-c]pyridine], the remaining activity at 16 µM [1] was 93%.
With `CC1c2nc[nH]c2CCN1C(=O)c1ccccc1` (stereo not shown) [MWT-S-00327] the remaining activity at 100 µM [1] was 18%.
Work on `c1nc2c([nH]1)CCN(Cc1ccc(OCCN3CCOCC3)cc1)C2` [MWT-S-00330, 4-[2-[4-(1,4,6,7-Tetrahydroimidazo[4,5-c]pyridin-5-ylmethyl)phenoxy]ethyl]morpholine] yielded a pKi (Ki (average)) of 6.03 and a remaining activity at 8 µM [1] of 22%.
In the case of `CCCCOc1ccc(CN2CCc3[nH]cnc3C2)cc1` [MWT-S-00331, 5-[(4-Butoxyphenyl)methyl]-1,4,6,7-tetrahydroimidazo[4,5-c]pyridine], the pKi (Ki (average)) was 6.60 and the remaining activity at 1.5 µM [1] was 26%.
In the case of `COc1cccc(CN2CCc3[nH]cnc3C2)c1` [MWT-S-00343, 5-[(3-Methoxyphenyl)methyl]-1,4,6,7-tetrahydroimidazo[4,5-c]pyridine], the remaining activity at 1 µM [1] was 65%.
`FC1(F)Oc2ccc(CN3CCc4[nH]cnc4C3)cc2O1` [MWT-S-00344, 5-[(2,2-Difluoro-1,3-benzodioxol-5-yl)methyl]-1,4,6,7-tetrahydro-imidazo[4,5-c]pyridine] gave a remaining activity at 1 µM [1] of 56%.
In the case of `c1ccc(COc2ccc(CN3CCc4[nH]cnc4C3)cc2)cc1` [MWT-S-00359, 5-[(4-Benzyloxyphenyl)methyl]-1,4,6,7-tetrahydroimidazo[4,5-c]pyridine], the pKi (Ki (average)) was 6.72 and the remaining activity at 1 µM [1] was 31%.
`c1cc(CN2CCc3[nH]cnc3C2)cc(N2CCCC2)c1` [MWT-S-00361, 5-[(3-Pyrrolidin-1-ylphenyl)methyl]-1,4,6,7-tetrahydroimidazo[4,5-c]pyridine] gave a remaining activity at 1 µM [1] of 80%.
`c1nc2c([nH]1)CCN(Cc1ccc3c(c1)OCCO3)C2` [MWT-S-00380, 5-(2,3-Dihydro-1,4-benzodioxin-6-ylmethyl)-1,4,6,7-tetrahydro-imidazo[4,5-c]pyridine] gave a pKi (Ki (average)) of 6.51 and a remaining activity at 1 µM [1] of 39%.
In the case of `Cc1ccc(CN2CCc3[nH]cnc3C2)cc1` [MWT-S-00420, 5-(p-Tolylmethyl)-1,4,6,7-tetrahydroimidazo[4,5-c]pyridine], the pKi (Ki (average)) was 6.09 and the remaining activity at 10 µM [1] was 16%.
`Clc1ccc(CN2CCc3[nH]cnc3C2)cc1` [MWT-S-00421, 5-[(4-Chlorophenyl)methyl]-1,4,6,7-tetrahydroimidazo[4,5-c]pyridine] gave a pKi (Ki (average)) of 6.27 and a remaining activity at 10 µM [1] of 11%.
`Clc1ccc(CN2CCc3[nH]cnc3C2)cc1Cl` [MWT-S-00423, 5-[(3,4-Dichlorophenyl)methyl]-1,4,6,7-tetrahydroimidazo[4,5-c]pyridine] gave a pKi (Ki (average)) of 6.44 and a remaining activity at 10 µM [1] of 8%.
`O=C(c1cccc(Cl)c1)N1CCc2[nH]cnc2C1` [MWT-S-00425, (3-Chlorophenyl)(1,4,6,7-tetrahydro-5H-imidazo[4,5-c]pyridin-5-yl)methanone] was tested, and the pKi (read-out: Ki (average)) was 6.76 and the remaining activity at 10 µM [1] was 5%.
`COc1ccc(C(=O)N2CCc3[nH]cnc3C2)cc1OC` [MWT-S-00426, (3,4-Dimethoxyphenyl)(1,4,6,7-tetrahydro-5H-imidazo[4,5-c]pyridin-5-yl)methanone] gave a pKi (read-out: Ki (average)) of 5.83 and a remaining activity at 10 µM [1] of 26%.
`O=C(c1ccc2c(c1)OCO2)N1CCc2[nH]cnc2C1` [MWT-S-00427, Benzo[d][1,3]dioxol-5-yl(1,4,6,7-tetrahydro-5H-imidazo[4,5-c]pyridin-5-yl)methanone] was tested, and the pKi (read-out: Ki (average)) was 6.25 and the remaining activity at 10 µM [1] was 13%.
Work on `O=C(c1ccc(-c2ccccc2)cc1)N1CCc2[nH]cnc2C1` [MWT-S-00428, [1,1′-Biphenyl]-4-yl(1,4,6,7-tetrahydro-5H-imidazo[4,5-c]pyridin-5-yl)methanone] yielded a pKi (read-out: Ki (average)) of 5.72 and a remaining activity at 1 µM [1] of 83%.
`COc1cc(OC)cc(C(=O)N2CCc3[nH]cnc3C2)c1` [MWT-S-00429, (3,5-Dimethoxyphenyl)(1,4,6,7-tetrahydro-5H-imidazo[4,5-c]pyridin-5-yl)methanone] gave a pKi (read-out: Ki (average)) of 6.03 and a remaining activity at 10 µM [1] of 16%.
`O=C(c1cccc(F)c1)N1CCc2[nH]cnc2C1` [MWT-S-00430, (3-Fluorophenyl)(1,4,6,7-tetrahydro-5H-imidazo[4,5-c]pyridin-5-yl)methanone] gave a remaining activity at 1 µM [1] of 40%.
`CCCOc1cccc(C(=O)N2CCc3[nH]cnc3C2)c1` [MWT-S-00432, (3-Propoxyphenyl)(1,4,6,7-tetrahydro-5H-imidazo[4,5-c]pyridin-5-yl)methanone] gave a pKi (read-out: Ki (average)) of 6.11 and a remaining activity at 100 µM [1] of 2%.
`O=C(c1cccc(-c2ccccc2)c1)N1CCc2[nH]cnc2C1` [MWT-S-00433, [1,1′-Biphenyl]-3-yl(1,4,6,7-tetrahydro-5H-imidazo[4,5-c]pyridin-5-yl)methanone] showed a pKi (read-out: Ki (average)) of 6.26 and a remaining activity at 1 µM [1] of 47%.
`O=C(c1ccc2c(c1)OCCO2)N1CCc2[nH]cnc2C1` [MWT-S-00434, (2,3-Dihydrobenzo[b][1,4]dioxin-6-yl)(1,4,6,7-tetrahydro-5H-imidazo-[4,5-c]pyridin-5-yl)methanone] showed a pKi (read-out: Ki (average)) of 5.87 and a remaining activity at 100 µM [1] of 3%.
